The values that follow come from patent US8609653B2, “Azaindole compounds and methods for treating HIV” (priority 2011, dated 2013).

As a reminder, the IC50 is the concentration needed to halve the response being measured.

The structures appear in SMILES notation. Counter-ions that a name gives are not always drawn.

This experiment deals with HIV. In words: MT4 assay: antiviral HIV activity in MT-4 cells. The settings on record: Human immunodeficiency virus 1, MT4, 96 h, read-out: HIV MT4 Assay IC50 (μM), HTLV-1 transformed cell line MT-4; read-out 96 hours later with cell titer glo; 10 point dose response. Format: cell-based. The method, boiled down:
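Compounds tested in HTLV-1-transformed MT-4 cells for protection from HIV, with cytotoxicity run in parallel under the same conditions; CellTiter-Glo luminescence read 96 h later. IC50 from 10-point, 3–4-fold serial dilutions spanning >1000-fold, % inhibition relative to no-compound control, fitted by four-parameter logistic.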
On the technique in general: Cellular ATP, detected with luciferase, serves as a proxy for viable cell number.

As for `Cc1nc2c(ccn2Cc2ccc(F)c(F)c2)c(C2=CCC(C)(C)CC2)c1[C@H](OC(C)(C)C)C(=O)O` [Example 114, (S)-2-(tert-butoxy)-2-(1-(3,4-difluorobenzyl)-4-(4,4-dimethylcyclohex-1-en-1-yl)-6-methyl-1H-pyrrolo[2,3-b]pyridin-5-yl)acetic acid], the IC50 was determined as 0.08 µM. Under `Cc1ccc(-c2c([C@H](OC(C)(C)C)C(=O)O)c(C)nc3c2ccn3Cc2ccc(F)c(F)c2)c(F)c1` [Example 115, (2S)-2-(tert-Butoxy)-2-(1-(3,4-difluorobenzyl)-4-(2-fluoro-4-methylphenyl)-6-methyl-1H-pyrrolo[2,3-b]pyridin-5-yl)acetic acid] stands 0.029 µM; under `Cc1nc2c(ccn2Cc2ccc(F)c(F)c2)c(-c2ccc3ncsc3c2)c1[C@H](OC(C)(C)C)C(=O)O` [Example 117, (S)-2-(4-(Benzo[d]thiazol-6-yl)-1-(3,4-difluorobenzyl)-6-methyl-1H-pyrrolo[2,3-b]pyridin-5-yl)-2-(tert-butoxy)acetic acid, Trifluoroacetic acid salt], 0.036 µM.

Regarding `Cc1nc2c(ccn2Cc2ccc(F)c(F)c2)c(C2=CCCCC2)c1[C@H](OC(C)(C)C)C(=O)O` [Example 120, (S)-2-(tert-butoxy)-2-(4-(cyclohex-1-en-1-yl)-1-(3,4-difluorobenzyl)-6-methyl-1H-pyrrolo[2,3-b]pyridin-5-yl)acetic acid], the IC50 is 0.15 µM. `COc1cccc(F)c1Cn1ccc2c(-c3ccc4c(c3C)CCCO4)c([C@H](OC(C)(C)C)C(=O)O)c(C)nc21` [Example 121, (2S)-2-(tert-butoxy)-2-(1-(2-fluoro-6-methoxybenzyl)-6-methyl-4-(5-methylchroman-6-yl)-1H-pyrrolo[2,3-b]pyridin-5-yl)acetic acid]: the IC50 was 0.002 µM. Consider `Cc1nc2c(ccn2Cc2ccc(F)c(F)c2)c(-c2ccc3c(c2)C(C)(C)CO3)c1[C@H](OC(C)(C)C)C(=O)O` [Example 123, (S)-2-(tert-butoxy)-2-(1-(3,4-difluorobenzyl)-4-(3,3-dimethyl-2,3-dihydrobenzofuran-5-yl)-6-methyl-1H-pyrrolo[2,3-b]pyridin-5-yl)acetic acid], for which the IC50 was determined as 2.86 µM.

As to `Cc1cc(F)ccc1Cn1ccc2c(-c3ccc4c(c3C)CCCO4)c([C@H](OC(C)(C)C)C(=O)O)c(C)nc21` [Example 125, (2S)-2-(tert-butoxy)-2-(1-(4-fluoro-2-methylbenzyl)-6-methyl-4-(5-methylchroman-6-yl)-1H-pyrrolo[2,3-b]pyridin-5-yl)acetic acid], the IC50 was 0.003 µM.

With `Cc1nc2c(c(-c3ccc4c(c3C)CCCO4)c1C(OC(C)(C)C)C(=O)O)c1ccccc1n2C` (stereo not drawn) [Example 127, 2-(tert-butoxy)-2-(2,9-dimethyl-4-(5-methylchroman-6-yl)-9H-pyrido[2,3-b]indol-3-yl)acetic acid], the IC50 was determined as 0.05 µM.

For `Cc1nc2c(c3c(n2C2CC2)CCCC3)c(-c2ccc3c(c2C)CCCO3)c1C(OC(C)(C)C)C(=O)O` (stereo not drawn) [Example 128, 2-(tert-butoxy)-2-(9-cyclopropyl-2-methyl-4-(5-methylchroman-6-yl)-6,7,8,9-tetrahydro-5H-pyrido[2,3-b]indol-3-yl)acetic acid], the IC50 was determined as 0.06 µM.
